Experimental data from patent US8076482B2, “3,3′-spiroindolinone derivatives” (Hoffmann-La Roche Inc., priority 2009, dated 2011).

What follows are molecules tested against interaction between p53 and MDM2 proteins (Homo sapiens, UniProt Q00987) (assay: HTRF assay of inhibition of the p53-MDM2 interaction (GST-MDM2 / biotinylated p53 peptide)). Details: 0.02% BSA.
Type: binding
Description: The ability of the compounds to inhibit the interaction between p53 and MDM2 proteins was measured by an HTRF (homogeneous time-resolved fluorescence) assay in which recombinant GST-tagged MDM2 binds to a peptide that resembles the MDM2-interacting region of p53 (Lane et al.). Binding of GST-MDM2 protein and p53-peptide (biotinylated on its N-terminal end) is registered by the FRET (fluorescence resonance energy transfer) between Europium (Eu)-labeled anti-GST antibody and streptavidin-conjugated Allophycocyanin (APC).
Test is performed in black flat-bottom 384-well plates (Costar) in a total volume of 40 uL containing: 90 nM biotinylate peptide, 160 ng/ml GST-MDM2, 20 nM streptavidin-APC (PerkinElmerWallac), 2 nM Eu-labeled anti-GST-antibody (PerkinElmerWallac), 0.2% bovine serum albumin (BSA), 1 mM dithiothreitol (DTT) and 20 mM […] (TBS) buffer as follows: Add 10 uL of GST-MDM2 (640 ng/ml working solution) in reaction buffer to each well. Add 10 uL diluted compounds (1:5 dilution in reaction buffer) to each well, mix by shaking. Add 20 uL biotinylated p53 peptide (180 nM working solution) in reaction buffer to each well and mix on shaker. Incubate at 37° C. for 1 h. Add 20 uL streptavidin-APC and Eu-anti-GST antibody mixture (6 nM Eu-anti-GST and 60 nM streptavidin-APC working solution) in TBS buffer with 0.2% BSA, shake at room temperature for 30 minutes and read using a TRF-capable plate reader at 665 and 615 nm (Victor 5, Perkin ElmerWallac).

interaction between p53 and MDM2 proteins, sequence (Q00987 whole entry): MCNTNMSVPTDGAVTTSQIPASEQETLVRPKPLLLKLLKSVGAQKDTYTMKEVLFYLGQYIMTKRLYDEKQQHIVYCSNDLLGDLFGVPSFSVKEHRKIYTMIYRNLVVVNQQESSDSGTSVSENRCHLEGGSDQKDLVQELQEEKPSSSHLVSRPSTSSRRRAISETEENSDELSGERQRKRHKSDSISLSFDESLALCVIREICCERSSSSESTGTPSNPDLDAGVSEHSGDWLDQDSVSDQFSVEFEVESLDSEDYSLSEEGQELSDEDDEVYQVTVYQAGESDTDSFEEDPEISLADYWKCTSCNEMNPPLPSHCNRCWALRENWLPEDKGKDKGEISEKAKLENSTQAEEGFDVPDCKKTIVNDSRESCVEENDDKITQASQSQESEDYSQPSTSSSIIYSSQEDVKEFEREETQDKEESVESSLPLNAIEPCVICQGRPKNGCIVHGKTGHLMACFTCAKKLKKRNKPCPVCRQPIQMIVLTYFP

IC50 [µM] | SMILES
1.09 | COc1cc(F)c(Cl)cc1[C@@H]1CC(=S)N[C@H](c2cc(F)ccc2C)[C@@]12C(=O)Nc1cc(Cl)ccc12 (racemic) [Example 62]
0.607 | CONC(=O)C(C)(C)Oc1ccc(Cl)cc1[C@H]1CC(=S)N[C@@H](c2cc(F)ccc2C)[C@]12C(=O)Nc1cc(Cl)ccc12 (racemic) [Example 73, racemic (2′S, 3S, 4′R)-6-chloro-4′-[5-chloro-2-(1-methoxycarbamoyl-1-methyl-ethoxy)-phenyl]-2′-(5-fluoro-2-methyl-phenyl)-6′-thioxo spiro[3H-indole-3,3′-piperidine]-2(1H)-one]
0.05 | Cc1ccc(F)cc1[C@@H]1NC(=S)C[C@H](c2cc(Cl)ccc2OC(C)(C)C(=O)O)[C@@]12C(=O)Nc1cc(Cl)ccc12 [Example 8, chiral (2′S, 3S, 4′R)-6-chloro-4′-[5-chloro-2-(1-hydroxycarbonyl-1-methyl-ethoxy)-phenyl]-2′-(5-fluoro-2-methyl-phenyl)-6′-thioxo spiro[3H-indole-3,3′-piperidine]-2(1H)-one]
0.022 | CCC(CC)(Oc1ccc(Cl)cc1[C@H]1CC(=S)N[C@@H](c2cc(F)ccc2C)[C@]12C(=O)Nc1cc(Cl)ccc12)C(=O)NS(C)(=O)=O [Example 24, chiral (2′S, 3S, 4′R)-6-chloro-4′-[5-chloro-2-(2-methanesulfonylamino-1,1-diethyl-2-oxo-ethoxy)-phenyl]-2′-(5-fluoro-2-methyl-phenyl)-6′-thioxo spiro[3H-indole-3,3′-piperidine]-2(1H)-one]

SMILES | IC50 [µM]
COC(=O)C1(Oc2ccc(Cl)cc2[C@H]2CC(=S)N[C@@H](c3cc(F)ccc3C)[C@]23C(=O)Nc2cc(Cl)ccc23)CCC1 (racemic) [Example 50, racemic (2′S, 3S, 4′R)-6-chloro-4′-[5-chloro-2-(1-methoxycarbonyl-cyclobutoxy)-phenyl]-2′-(5-fluoro-2-methyl-phenyl)-6′-thioxo spiro[3H-indole-3,3′-piperidine]-2(1H)-one] | 4.33
